In patent US5192799A, “Coumaran group containing amine compounds and their acid addition salts and quaternary ammonium salts and the use thereof as anti arrhythmic agents and as psychotropic agents” (Mitsui Petrochemical Industries, Ltd., priority 1987, dated 1993):
Like-named read-outs stand apart in the source and are kept apart here.

Columns and labels:
dopamine 2 receptor = target: T1, dopamine 2 receptor (Rattus norvegicus, UniProt P61169); experiment: [3H]spiperone binding assay (affinity for dopamine 2 receptor); parameters: species or system Wistar-strain male rat; conditions: rat striatal membranes, 0.5 nM [3H] spiperone, 37° C., 10 minutes
T1 construct: membrane fractions prepared from the brain a Wistarstrain male rat; from tissue; host or cells: rat brain striatum (Wistar, male), membrane fraction
T1 sequence (P61169 whole entry): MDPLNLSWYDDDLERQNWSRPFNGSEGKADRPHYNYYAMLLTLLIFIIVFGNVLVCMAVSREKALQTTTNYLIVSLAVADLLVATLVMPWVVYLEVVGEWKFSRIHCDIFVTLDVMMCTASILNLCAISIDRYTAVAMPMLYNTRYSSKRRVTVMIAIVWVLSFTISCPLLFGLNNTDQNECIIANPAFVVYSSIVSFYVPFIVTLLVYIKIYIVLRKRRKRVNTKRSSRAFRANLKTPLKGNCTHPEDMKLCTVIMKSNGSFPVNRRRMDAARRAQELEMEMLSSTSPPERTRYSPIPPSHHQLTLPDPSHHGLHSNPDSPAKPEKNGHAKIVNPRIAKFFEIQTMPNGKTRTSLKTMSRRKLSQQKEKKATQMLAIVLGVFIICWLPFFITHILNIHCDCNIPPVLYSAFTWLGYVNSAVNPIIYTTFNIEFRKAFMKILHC
Method: (§1) Striatal membranes fractions were prepared from a rat brain, and the affinity of the compounds of this invention on dopamine 2 receptors was determined by using [^3 H] spiperone assay from membranes fractions as an index. Moreover, frontal cortex membranes were prepared from a rat brain, and the affinity of the test drugs on serotonine 2 receptor was determined by using [^3 H] ketenserin binding assay. It was shown that the compounds of general formula (1) of the invention have marked anti-dopamine activity and anti-serotonine activity.
[^3 H]spiperone binding assay
The affinity of the compounds of this invention to the dopamine 2 receptor was determined on the basis of the ability to substitute [^3 H] spiperone from stratal membrane fractions prepared from the brain a Wistarstrain male rat.
(§2) The rat was decapitated, and the brain was obtained. The striatum was homogenized in 40 volumes of 50 mM Tris-HCl buffer (pH 7.6), and then centrifuged. The pellets were again homogenized in 50 volumes of the same buffer, and used in a binding test. The binding test was conducted by the following procedure.
(§3) The stria (original tissue weight 20 mg/ml), 100 microliters of a test drug and 0.5 nM of [^3 H] spiperone were incubated at 37° C. for 10 minutes in 50 mM Tris-HCl buffer (pH 7.6). Then, the reaction mixture was suction-filtered through a glass fiber filter (Watmann GF/B) and washed with a buffer three times.
(§4) The filter was put in a scintillation cocktail (ACSII, Amersham Co.), and after mixing, left to stand overnight. The radioactivity held on the filter was measured by a liquid scintillation counter. The nonspecific binding was measured in the presence of 1 μM of (+) butaclamol. The concentration of the test drug which inhibited 50% of a specific binding was determined from the graph and defined as IC50. Ki was calculated from the following equation. [formula]

serotonine 2 receptor = target: T2, serotonine 2 receptor (Rattus norvegicus, UniProt P14842); experiment: [3H]ketanserin binding assay (affinity for serotonine 2 receptor); parameters: species or system Wistar male rat; conditions: rat frontal cortex, 1 nM [3H] ketanserin, 37° C., 10 minutes
T2 construct: frontal cortex fraction prepared from the brain of a Wistar male rat; from tissue; host or cells: rat brain frontal cortex (Wistar, male), membrane fraction
T2 sequence (P14842 whole entry): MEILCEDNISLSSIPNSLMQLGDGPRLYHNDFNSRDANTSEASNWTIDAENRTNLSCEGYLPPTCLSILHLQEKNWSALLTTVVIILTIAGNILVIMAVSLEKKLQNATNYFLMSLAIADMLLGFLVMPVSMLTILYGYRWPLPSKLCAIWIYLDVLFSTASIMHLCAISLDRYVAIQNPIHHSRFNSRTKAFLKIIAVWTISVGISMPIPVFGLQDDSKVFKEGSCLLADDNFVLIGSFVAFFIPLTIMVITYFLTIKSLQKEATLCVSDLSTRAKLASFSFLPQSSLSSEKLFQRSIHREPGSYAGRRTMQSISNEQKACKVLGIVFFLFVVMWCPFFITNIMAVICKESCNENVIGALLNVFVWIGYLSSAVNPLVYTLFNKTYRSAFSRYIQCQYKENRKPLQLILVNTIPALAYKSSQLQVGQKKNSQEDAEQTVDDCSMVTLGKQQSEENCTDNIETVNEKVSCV
Method: as §1
[^3 H] ketanserin binding assay
The affinity of the compound of the invention was determined on the basis of the ability to substitute [^3 H] ketanserin from a frontal cortex fraction prepared from the brain of a Wistar male rat.
as §2, with “The frontal cortex” for “The striatum”, “in 100” for “in 50”
as §3, with “frontal cortex” for “stria”, “1” for “20”, “1” for “0.5”, “ketanserin” for “spiperone”
as §4, with “methysergide.” for “(+) butaclamol.”, “IC5.” for “IC50.”

[1] = tested on: Quipazine-induced head twitching of mice; experiment: Quipazine-induced head twitching (anti-5-HT activity); type: in vivo, ddY-strain male mice; conditions: for Percent inhibition of quipazine-induced head twitching / Quipazine-induced head twitching: 1 mg/kg i.p.; for Quipazine-induced head twitching: control 6.7 ± 0.8, **p < 0.05, ***p < 0.001
Excerpt: (§5) The effects of the compounds of general formula (1) on the apomorphine-induced climbing behavior of mice (i.e. anti-dopamine activity) and the effects of the test drugs of the invention on the quipazine-induced head twitching of mice (i.e. anti-serotonine activity) were also examined. It was made clear that the compounds of this invention represented by general formula (1) have marked anti-dopamine activity and anti-serotonine activity both in vivo and in vitro, and have potentiality as an anti-psychotic agent, an anti-depressant, an antianxiety agent, a sedative or as an anti-dementia agent.
(§6) By using 5 week old ddY-strain male mice (10 per group), the anti-dopamine (anti-DA hereinafter) and anti-serotonine (anti-5-HT hereinafter) activities were examined by the following procedures. All does of test drugs were adjusted to 1 mg/ml. They were each suspended in 0.5% carboxymethyl cellulose (CMC)/saline so that their volume administered was 0.1 ml/10 g. The suspension was administered intraperitoneally.
2. Effect of quipazine on the head twitch (anti-5-HT activity):
Quipazine (3 mg/kg) was administered intraperitoneally 30 minutes after the intraperitoneal administration of each test drug. After the lapse of 10 minutes, 20 minutes and 30 minutes from then, the number of head twitchings of each mouse which occurred for 2 minutes was counted.

Purkinje fiber = experiment: Effect on APD (APD75, field-stimulated right ventricular free wall); type: cell-based, adult mongrel dog; conditions: 20 minutes incubation, 37° C., 1 Hz, control before drug = 100%; for activation at 1 µg/mL / activation at 3 µg/mL / activation at 10 µg/mL: Canis lupus familiaris, purkinje, 20 min, read-out: APD75 % (percent change in APD75); for activation at 10 µg/mL: dose 10 μg/ml
How it was run: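 Right ventricular free wall from pentobarbital-anaesthetized adult mongrel dog, held in Tyrode's solution at 37° C. with 1 Hz field stimulation. Purkinje fiber action potentials recorded by intracellular glass microelectrodes; APD75 measured after 20 minutes drug perfusion, expressed as percent change versus pre-drug control (100%).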

[2] = tested on: right ventricle (effective refractory period); experiment: Activity on ERP of the right ventricle; type: in vivo, adult mongrel dog; conditions: Canis lupus familiaris, ERP before drug = 100%, read-out: ERP % (ERP prolonging activity)
How it was run: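 Anaesthetized open-chest mongrel dogs, right ventricle paced at 400 msec interval (4 msec, twice diastolic threshold) after alcohol ablation of sinus pacemaker. ERP defined by loss of response to first stimulus of a 10-stimulus train; drug given intravenously or intraduodenally, ERP expressed as % of pre-dose.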

atrial fibrillation = experiment: Atrial fibrillation model; type: in vivo, mongrel dog; conditions: dose of 0.3 to 3 mg/kg or 1 to 10 mg/kg
Excerpt: Furthermore, the anaethetized dog was cut open at the chest. Bipolar electrodes were sutured to the right atrial surface, and stimulation electrodes were attached to the vagus nerves at both sides of the cervical region. Atrial fibrillation was induced by the method of Goldberger et al. A. L. Goldberger et al.: […] Further, the anaethetized dog was cut open at the chest. Left anterior descending coronary artery was ligated, and ninety minutes later, reperfused to prepare a myocardial infarction which was liable to develop tachycardia. At that time, a bipolar plunge electrode was placed in the interventricular septum near the ligated site. Several days after the operation, programmed electrical stimulation was applied to induce tachycardia. The effect of the drug to cause disappear of tachycardia was examined. In an anaethetized and open-chested mongrel dog, bipolar electrodes (silver and silver-silver chloride electrodes) were sutured respectively to the right atrium for stimulation and recording. The vagus nerves on both sides of the cervical region were isolated and cut, and stimulation electrodes were attached to the peripheral end. The atrial fibrillation was induced in accordance with the method of Goldberger et al. After cardiac arrest induced by stimulating the vagus nerves, electrical stimulation was applied to the right atria at a high frequency.

in vivo = conditions: mouse, in vivo
Method: (§7) By using male ddY-strain 5-week old mice (3 to 4 per group), the compounds of general formula (1) were each administered orally or intraperitoneally as a solution in saline or as a suspension in methyl cellulose, and 24 hours after the administration, the toxicity of the compounds was evaluated.

mice = experiment: in vivo; conditions: p.o., 24 hours after administration, male ddY mice; 1440 min
Method: as §7

[3] = tested on: Apomorphine-induced climbing of mice; experiment: Apomorphine-induced climbing (anti-DA activity); type: in vivo, ddY-strain male mice
Excerpt: as §5, §6
1. Effect of apomorphine on the climbing behavior (anti-DA activity):
Apomorphine (3 mg/kg) was subcutaneously administered 30 minutes after the intraperitoneal administration of each test drug, and 20 minutes later, the climbing time of each mouse was measured.

[4] = po, LD50 p.o., p.o., 24 hours after administration, male ddY mice

Structure (SMILES)	Ki (dopamine 2 receptor)	Ki (serotonine 2 receptor)	activation at 3 µg/mL (Purkinje fiber; dose 3 μg/ml)	activation at 10 µg/mL (Purkinje fiber)	change in vivo at 0.3 mg/kg ([2]; iv, 0.3 mg/kg i.v.)	change in vivo at 1 mg/kg ([2]; iv, 1 mg/kg i.v.)	disappearance of atrial fibrillation (atrial fibrillation)	LD50 at 24 h (in vivo; [4])	also measured
O=C1COc2cc(OCCCN3CCN(c4ccccc4)CC3)ccc21 [Compound 1256]	0.286 µM	0.175 µM	–	–	–	–	–	–	Percent inhibition of quipazine-induced head twitching [1]: 43%; Quipazine-induced head twitching [1]: 3.8 ± 0.9 number/2 min.
O=C1COc2cc(OCCCN3CCC(Cc4ccccc4)CC3)ccc21 [Compound 1146]	> 0.4 µM	0.441 µM	25%	34%	16%	20%	could cause disappearance fibrillation	> 300 mg/kg	activation at 1 µg/mL (Purkinje fiber; dose 1 μg/ml): 18%; change in vivo at 0.1 mg/kg ([2]; iv, 0.1 mg/kg i.v.): 4%
O=C1COc2cc(OCCCN3CCC(c4ccccc4)CC3)ccc21 [Compound 1140]	–	–	–	–	–	–	–	–	LD50 p.o. (mice): > 300 mg/kg
O=C1COc2cc(OCCCN3CCC(C(=O)c4ccc(F)cc4)CC3)ccc21 [Compound 1236]	0.122 µM	0.0091 µM	–	–	–	–	–	–	LD50 at 24 h (in vivo; po): < 300 mg/kg; Percent inhibition of apomorphine-induced climbing ([3]; 1 mg/kg i.p.): 56%; Apomorphine-induced climbing (mean ± S.E.) ([3]; 1 mg/kg i.p., control 72.9 ± 8.5, **p < 0.01): 32.0 ± 8.6 sec/2 min.; effect on apomorphine-induced climbing behavior / anti-dopamine activity (in words) ([3]; in vivo, mice): significantly inhibited the apomorphine-induced climbing behavior; Percent inhibition of quipazine-induced head twitching [1]: 99%; Quipazine-induced head twitching [1]: 0.1 ± 0.1 number/2 min.; effect on quipazine-induced head twitching / anti-serotonine activity (in words) ([1]; in vivo, mice): significantly inhibited the apomorphine-induced climbing behavior and quipazine-induced head twitching
CCCCCCCN(CC)CCCOc1ccc2c(c1)OCC2=O.Cl [Compound 102, 6-3-(N-ethyl-N-heptylamino)propyloxycoumaran-3-one hydrochloride]	–	–	–	–	21.3 ± 3.3%	23.3 ± 2.9%	could cause disappearance fibrillation	~300 mg/kg	APD75 % (percent change in APD75) (Purkinje fiber; dose 1 μg/ml): 20%; APD75 % (percent change in APD75) (Purkinje fiber; dose 3 μg/ml): 30%; change in vivo at 0.1 mg/kg ([2]; iv, 0.1 mg/kg i.v.): 11.7 ± 3.2%; change in vivo at 0.1 mg/kg ([2]; 0.1 mg/kg i.d.): 0%; change in vivo at 0.3 mg/kg ([2]; 0.3 mg/kg i.d.): 13%; change in vivo at 1 mg/kg ([2]; 1 mg/kg i.d.): 27%; LD50 at 24 h (in vivo; ip, LD50 i.p., i.p., 24 hours after administration, male ddY mice): ~100 mg/kg
CC1CCCC(C)N1CCCOc1ccc2c(c1)OCC2=O (stereo not shown) [Compound 1126]	–	–	19%	27%	8%	12%	could cause disappearance fibrillation	> 300 mg/kg	change in vivo at 3 mg/kg ([2]; iv, 3 mg/kg i.v.): 15%
O=C1COc2cc(OCCCN3CCC(c4ccccc4)CC3)ccc21 [Compound 1139]	–	–	55%	65%	5%	11%	could cause disappearance fibrillation	–	activation at 1 µg/mL (Purkinje fiber; dose 1 μg/ml): 33%; LD50 p.o. (mice): > 1,000 mg/kg
